Tests used:
hGHR [1] = molecular target: T1, hGHR (Homo sapiens, UniProt P10912); assay: hGH-mediated pSTAT5 in SK-MEL-28 cells, ELISA; type: cell-based; conditions: SK-MEL-28, 20 min, ELISA (pSTAT5A Y694/pSTAT5B Y699), SK-MEL-28 cells co-treated with hGH and 200 nM peptide, Equation 2, triplicate
T1 construct: previously reported to express high levels of endogenous hGHR; host or cells: SK-MEL-28, MALME-3M, IM9
T1 sequence (P10912 19-638): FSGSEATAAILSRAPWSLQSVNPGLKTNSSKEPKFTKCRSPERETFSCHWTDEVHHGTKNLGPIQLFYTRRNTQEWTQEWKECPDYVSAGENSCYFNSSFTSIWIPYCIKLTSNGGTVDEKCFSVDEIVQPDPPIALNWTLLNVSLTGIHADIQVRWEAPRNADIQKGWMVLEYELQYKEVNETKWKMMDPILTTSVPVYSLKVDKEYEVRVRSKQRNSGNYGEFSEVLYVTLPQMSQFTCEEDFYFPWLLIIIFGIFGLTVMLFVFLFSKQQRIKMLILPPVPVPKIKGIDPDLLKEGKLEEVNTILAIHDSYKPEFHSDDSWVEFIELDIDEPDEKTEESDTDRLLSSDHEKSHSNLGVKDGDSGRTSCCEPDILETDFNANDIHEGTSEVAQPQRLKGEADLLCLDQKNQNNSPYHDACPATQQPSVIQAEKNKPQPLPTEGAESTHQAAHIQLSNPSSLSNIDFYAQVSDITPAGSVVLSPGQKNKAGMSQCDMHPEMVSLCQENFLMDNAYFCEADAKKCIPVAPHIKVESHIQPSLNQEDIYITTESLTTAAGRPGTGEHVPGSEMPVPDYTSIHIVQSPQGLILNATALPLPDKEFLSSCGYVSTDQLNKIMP
Protocol: SK-MEL-28, MALME-3M, and T84 cells were grown and maintained in Eagle's Minimal Essential Medium. IM9 and L cells were grown in RPMI-1640 media and Dulbecco's modified Eagle's medium, respectively. All growth media was supplemented with 10% fetal bovine serum and 1× antibiotic-antimycotic […] solution. Cells were grown at 37 °C under a 5% CO2 atmosphere in a humidified incubator, and growth media was replaced every 48 h during incubation. No hGH was present in or added to the growth media unless specifically indicated. Between 12 to 16 h after seeding, adherent cells (SK-MEL-28, MALME-3M, T84, L cells) were switched to serum-free growth media (no GH) and starved for 4 h before the addition of hGH, bGH (L cells), hPRL (MALME-3M and T84 cells), or buffer at the concentrations noted. Cells were then allowed to incubate for an additional 20 min before being harvested. For suspended cell treatments, IM9 cells were pelleted by centrifugation at 140g for 5 min at room temperature. The supernatant was then removed by aspiration, and the cells were resuspended in serum-free media. The cells were then starved for 4 h at 37 °C under a 5% CO2 atmosphere in a humidified incubator and subsequently treated with hGH, S1H, or both at the indicated concentrations for 20 min before harvesting by centrifugation.
Following treatment, the cells were harvested at the indicated time points, and the total protein was extracted. To affect protein extraction, the treatment media was removed by aspiration, and the cells were washed twice with ice-cold PBS. Following washing, total protein was extracted from the cells using RIPA buffer (100 μl/million cells) supplemented with 1.5× Halt protease and phosphatase inhibitor cocktail. Briefly, chilled RIPA buffer was added to the cells, and the lysis reaction was allowed to incubate for 5 min at 4 °C. Adherent cells were harvested for lysis using a sterile cell scraper. The resultant cell suspensions were sonicated on ice for 60 s with ON (2-s)/OFF (1-s) pulses at 2% power. The cell lysate was then cleared by centrifugation at 8000g for 10 min at 4 °C. Following centrifugation, the supernatant was collected and stored at −80 °C until further use. Sample protein concentration was quantified using a Bradford assay with bovine serum albumin as the protein standard. Absorbance at 595 nm was measured using a Spectramax 250 multimode plate reader (Molecular Devices) and processed using SoftmaxPro v4.7.1 software.
Intracellular pSTAT5A (Y694) and pSTAT5B (Y699) levels were quantified from clarified protein samples using an InstantOne ELISA kit (Thermo Fisher) according to the manufacturer’s instructions. Briefly, 50 μl of protein sample (1 mg/ml) were added to wells containing 50 μl antibody cocktail in a 96-well plate and incubated at room temperature for 2 h with shaking (300 rpm). Following incubation, the wells were washed, and the bound antibodies were detected by adding detection regent and incubating the plate for 1 h at room temperature with shaking (300 rpm). Following incubation, stop reagent was added, and the absorbance was read at 450 nm using a UV-VIS spectrophotometer (Molecular Devices, model M2). All experiments were performed in triplicate. Percent pSTAT5 inhibition was calculated from background-subtracted pSTAT5 levels using Equation 2:(2) %inhibition=100×(pSTAT5hGH−pSTAT5PI)/pSTAT5hGH where pSTAT5hGH is the fold-induction of pSTAT5 upon treatment with hGH alone and pSTAT5PI is the fold-induction of pSTAT5 upon co-treatment with hGH and peptide inhibitor.

hGHR [2] = molecular target: T1, hGHR; assay: hGH-mediated pSTAT5 in MALME-3M cells, Western blot; type: cell-based; conditions: 20 min
Protocol: SK-MEL-28, MALME-3M, and T84 cells were grown and maintained in Eagle's Minimal Essential Medium. IM9 and L cells were grown in RPMI-1640 media and Dulbecco's modified Eagle's medium, respectively. All growth media was supplemented with 10% fetal bovine serum and 1× antibiotic-antimycotic […] solution. Cells were grown at 37 °C under a 5% CO2 atmosphere in a humidified incubator, and growth media was replaced every 48 h during incubation. No hGH was present in or added to the growth media unless specifically indicated. […]
Following treatment, the cells were harvested at the indicated time points, and the total protein was extracted. […] Sample protein concentration was quantified using a Bradford assay with bovine serum albumin as the protein standard. Absorbance at 595 nm was measured using a Spectramax 250 multimode plate reader (Molecular Devices) and processed using SoftmaxPro v4.7.1 software.
Cytosolic fractions from treated cells were thawed on ice, and 80 μg protein was loaded onto polyacrylamide gels for separation by SDS-PAGE. […] Chemiluminescence signals were detected using a GelDoc (BioRad) fluorescence imager. […] Percent inhibition was then measured by subtracting the pSTAT5 band intensity in each lane from the pSTAT5 band intensity of hGH-treated samples. […]

With `CC[C@H](C)[C@H](NC(=O)[C@H](Cc1ccc(O)cc1)NC(C)=O)C(=O)N1CCC[C@H]1C(=O)N[C@@H](CCCCN)C(=O)N[C@@H](CCC(=O)O)C(=O)N[C@@H](CCC(N)=O)C(=O)N[C@@H](CCCCN)C(=O)N[C@@H](Cc1ccc(O)cc1)C(=O)N[C@@H](CO)C(=O)N[C@@H](Cc1ccccc1)C(=O)N[C@@H](CC(C)C)C(=O)N[C@@H](CCC(N)=O)C(=O)N[C@@H](CC(N)=O)C(=O)N1CCC[C@H]1C(=O)N[C@@H](CCC(N)=O)C(=O)N[C@H](C(N)=O)[C@@H](C)O` [S1H] the inhibition at 0.2 µM (hGHR [1]) was 98.3%, the inhibition at 0.05 µM (hGHR [2]; 50 nM inhibitor with 2.5 nM hGH, Western blot, compared with hGH alone, read-out: inhibition of hGH-induced pSTAT5) was 40% and the “suppression of hGH-mediated pSTAT5” value (hGHR [2]; 200 nM S1H with 2.5 nM hGH, Western blot densitometry, n = 3) was 56%.
